Results published in patent EP0299533B1, “High potency sweetening agents” (THE NUTRASWEET COMPANY (a Delaware corporation), priority 1987, dated 1989).
Counter-ions that a name gives are not always drawn.

Legend:
[1] = Stability in aqueous sodium phosphate buffer at pH 3, percent remaining by HPLC; assay type: physicochemical; settings: for half-life: phosphate buffer
Description: Compound 1 above was dissolved in an aqueous sodium phosphate buffer at a pH of 3 at a concentration of 30 µg/ml. The buffer was prepared by adding concentrated phosphoric acid to sodium phosphate […] until the pH was 3.0. This solution was then maintained at 90°C for 6 days. The percent of compound 1 remaining after 6 days was 98%. […] The half-life was estimated to be 177 days in this buffer at 90°C. The stability of the glycine derivative of this compound, i.e., 1′-N-[N-cyclooctylamino(4-cyanophenylimino)methyl]-glycine was determined in the same way as Cpd. 1 except at 70°C and 50°C instead of 90°C. […] The calculated half-life at 90°C is about 2 days.

[2] = Taste test: compound was tasted for sweetness; assay type: in vivo
Description: A mixture of 5-aminomethyltetrazole (0.50 g, 5.05 mmol), sodium hydroxide (0.20 g, 5.00 mmol) and 1.5 ml of water was added to a solution of N-cyclooctyl-N′-(4-cyanophenyl)-S-methylisothiourea (1.52 g, 5.05 mmol) in 15 ml of absolute ethanol. The mixture was heated to 70° for 20 hours. After cooling, the solution was concentrated to dryness and the residue was dissolved in 20 ml of water. The resulting solution was washed with dichloromethane (3 x 20 ml) and then neutralized with a 1 N HCl solution to bring its pH to 7.5. The desired guanidine compound precipitated and was separated out by filtration to give 1.2 g (70%) of white solid. PMR (CD₃OD) δ 7.75 (d, J=8 Hz, 2H), 7.41 (d, J=8 Hz, 2H), 4.70 (s, 2H), 3.82 (m, 1H) and 1.96-1.46 (m, 14H). CMR (DMSO-D6) δ 158.3, 153.3, 144.0, 133.7, 122.0, 119.0, 105.5, 52.8, 37.8, 31.2, 26.8, 24.6 and 22.9. Analysis calculated for C₁₈H₂₄N₈ (0.6 H₂O): C, 59.52; H, 6.99; N, 30.85. Found: C, 59.38; H, 7.07; N, 31.18. The compound was tasted and was sweeet at a concentration of 10 ug/ml.
All the compounds presented in Examples 1 through 42 were tasted and were sweet.

## N#Cc1ccc(NC(=NCc2nnn[nH]2)NC2CCCCCCC2)cc1 [Example 1, 1'-N-[N-Cyclooctylamino (4-Cyanophenylimino)methyl]-5-Aminomethyltetrazole]
[1]; aqueous sodium phosphate buffer pH 3, 30 µg/ml, 90°C, 6 days, HPLC, read-out: percent of compound remaining after 6 days
  remaining at 144 h: 98%
[1]; pH 3, buffer pH 3, 90°C, estimated
  half-life: 177 days
[2]
  concentration at which the compound was tasted and was sweet: 10 µg/mL

## N#Cc1ccc(NC(=NCC(=O)O)NC2CCCCCCC2)cc1 [glycine derivative, 1′-N-[N-cyclooctylamino(4-cyanophenylimino)methyl]-glycine, reference compound]
[1]; pH 3, buffer pH 3, 50°C
  half-life: 13 days
[1]; pH 3, buffer pH 3, 70°C
  half-life: 5 days

## N#Cc1ccc(NC(=NCc2nnn[nH]2)NC2CC3CCC(=O)CC3C2)cc1 (stereo not drawn) [Example 42, 1′-N-[N′-2-Amino-6-oxo-cis-hydrindane (4-Cyanophenylimino)methyl]-5-Aminomethyltetrazole]
[2]
  concentration at which the compound was tasted and was sweet: 100 µg/mL

## N#Cc1ccc(N=C(NCc2nnn[nH]2)NC2CCCCCCC2)cc1 [Example 1 HCl salt]
[2]; no concentration given
  taste when tasted: sweet
